Test results published in US3970648A, “2-[2-(5-Nitro-2-furyl)vinyl]-4-(anilino)quinazolines” (Diamond Shamrock Corporation, priority 1974, dated 1976).

Experiments:
Format in all cases: cell-based
[1] = test system: Salmonella gallinarum; assay: Bactericide test, Salmonella gallinarum (agar streak plate); details: Salmonella enterica, GALLINARUM
From the text: (§1) Test formulations were examined for bactericidal and/or bacteriostatic activity against the test organisms shown in Tables A and B. These organisms were chosen as being representative of commercially important pathogens affecting animal agriculture. The antibiotic chlortetracycline was chosen as a positive control, since it has a broad spectrum of activity against a large number of organisms, and its activity can be used for comparative purposes.
(§2) Basic test formulations of the product of Examples I, II, III, and of chlortetracycline were prepared by dissolving 16 mg (0.016 g) in 2.0 ml of stock emulsifier solution (0.25% Triton X-155 in acetone by volume) and making each solution up to 50 ml with deionized water. The concentration of the test compound in the basic formulation was 320 ppm. Lower concentrations of the test compound were obtained by diluting the basic formulation with a 4% solution of the stock emulsifier in deionized water so that each dilution in the series differed only in test compound content.
(§3) Nutrient-tryptic soy agar (NTA) consisting of 2.0% Difco Bactoagar 0.8% nutrient broth (Difco), and 0.5% tryptic soy broth (Difco) was prepared and sterilized by autoclaving. A 2 ml aliquot of each test formulation was added to 8 ml of molten NTA. This mixture was then plated in a sterile polystyrene petri dish (100 × 15 mm). After the agar was set, suspensions of each of the test organisms were simultaneously streaked onto the surface of the agar. The inoculated plates were incubated for 48 hr at 28°C. The inhibition of growth of each organism was rated by visual comparison with the organism developing on non-treated agar. Growth inhibition reported as per cent control was rated in three categories as follows: 0% control, growth equivalent to that on non-treated agar; 50% control, sparse development and separated colonies; 100% control, no visible growth or development of colonies.
(§4) Test formulations of the product of Example IV were examined for bactericidal and/or bacteriostatic activity against the test organisms shown in Table B using the Bactericide Test described in Example V. The inhibition of organism growth with each diluted test formulation was rated visually by comparison with the organism developing on a non-treated control agar plate. Growth inhibition reported as per cent control was rated in three categories as follows: 0% control, growth equivalent to that on non-treated agar; 50% control is sparse development and separated colonies; and 100% control, development of individual colonies was not apparent.

[2] = test system: Salmonella cholerasuis; assay: Bactericide test, Salmonella cholerasuis (agar streak plate); details: Salmonella
From the text: as §1, §2, §3, §4

[3] = test system: Erysipelothrix rhusiopathiae; assay: Bactericide test, Erysipelothrix rhusiopathiae (agar streak plate)
From the text: as §1, §2, §3

[4] = test system: Streptococcus agalactiae; assay: Bactericide test, Streptococcus agalactiae (agar streak plate)
From the text: as §1, §2, §3

[5] = test system: Vibrio coli; assay: Bactericide test, Vibrio coli (agar streak plate)
From the text: as §1, §2, §3

[6] = test system: Streptococcus group E; assay: Bactericide test, Streptococcus group E (agar streak plate)
From the text: as §1, §2, §3

[7] = test system: Staphylococcus aureus; assay: Bactericide test, Staphylococcus aureus (agar streak plate); details: Staphylococcus aureus
From the text: as §1, §2, §3, §4

[8] = test system: Streptococcus faecalis; assay: Bactericide test, Streptococcus faecalis (agar streak plate)
From the text: as §1, §2, §3, §4

[9] = test system: Escherichia coli; assay: Bactericide test, Escherichia coli (agar streak plate)
From the text: as §1, §2, §3, §4

[10] = test system: Bordetella bronchiseptica; assay: Bactericide test, Bordetella bronchiseptica (agar streak plate)
From the text: as §1, §2, §3

[11] = test system: Salmonella typhimurium; assay: Bactericide test, Salmonella typhimurium (agar streak plate); details: Salmonella enterica, TYPHIMURIUM
From the text: as §1, §2, §3

[12] = 100% inhibition at lower concentrations

O=[N+]([O-])c1ccc(C=Cc2nc(Nc3cccc(O)c3)c3ccccc3n2)o1 [Example II, 2-[2-(5-nitro-2-furyl)vinyl]-4-(m-hydroxyanilino)quinazoline]
inhibition at 0.125 ppm ([1]; 0.125 ppm): 0%
inhibition at 0.25 ppm ([1]; 0.25 ppm): 0%
inhibition at 0.5 ppm ([1]; 0.5 ppm): 0%
inhibition at 1 ppm ([1]; 1 ppm): 0%
inhibition at 2 ppm ([1]; 2 ppm): 0%
inhibition at 4 ppm ([1]; 4 ppm): 0%
inhibition at 8 ppm ([1]; 8 ppm): 0%
inhibition at 16 ppm ([1]; 16 ppm): 0%
inhibition at 32 ppm ([1]; 32 ppm): 0%
inhibition at 64 ppm ([1]; 64 ppm): 0%
inhibition at 0.125 ppm ([2]; 0.125 ppm): 0%
inhibition at 0.25 ppm ([2]; 0.25 ppm): 0%
inhibition at 0.5 ppm ([2]; 0.5 ppm): 0%
inhibition at 1 ppm ([2]; 1 ppm, read-out: % Inhibition): 0%
inhibition at 2 ppm ([2]; 2 ppm): 0%
inhibition at 4 ppm ([2]; 4 ppm, read-out: % Inhibition): 0%
inhibition at 8 ppm ([2]; 8 ppm): 0%
inhibition at 16 ppm ([2]; 16 ppm, read-out: % Inhibition): 0%
inhibition at 32 ppm ([2]; 32 ppm): 0%
inhibition at 64 ppm ([2]; 64 ppm, read-out: % Inhibition): 0%
effectiveness compared with chlortetracycline (in words) [3, 12]: considerably more effective
inhibition at 0.125 ppm ([3]; Erysipelothrix rhusiopathiae, 0.125 ppm): 100%
inhibition at 0.25 ppm ([3]; Erysipelothrix rhusiopathiae, 0.25 ppm): 100%
inhibition at 0.5 ppm ([3]; Erysipelothrix rhusiopathiae, 0.5 ppm): 100%
inhibition at 1 ppm ([3]; Erysipelothrix rhusiopathiae, 1 ppm): 100%
inhibition at 2 ppm ([3]; Erysipelothrix rhusiopathiae, 2 ppm): 100%
inhibition at 4 ppm ([3]; Erysipelothrix rhusiopathiae, 4 ppm): 100%
inhibition at 8 ppm ([3]; Erysipelothrix rhusiopathiae, 8 ppm): 100%
inhibition at 16 ppm ([3]; Erysipelothrix rhusiopathiae, 16 ppm): 100%
inhibition at 32 ppm ([3]; Erysipelothrix rhusiopathiae, 32 ppm): 100%
inhibition at 64 ppm ([3]; Erysipelothrix rhusiopathiae, 64 ppm): 100%
effectiveness compared with chlortetracycline (in words) [4, 12]: considerably more effective
inhibition at 0.125 ppm ([4]; Streptococcus agalactiae, 0.125 ppm): 100%
inhibition at 0.25 ppm ([4]; Streptococcus agalactiae, 0.25 ppm): 100%
inhibition at 0.5 ppm ([4]; Streptococcus agalactiae, 0.5 ppm): 100%
inhibition at 1 ppm ([4]; Streptococcus agalactiae, 1 ppm, read-out: % Inhibition): 100%
inhibition at 2 ppm ([4]; Streptococcus agalactiae, 2 ppm): 100%
inhibition at 4 ppm ([4]; Streptococcus agalactiae, 4 ppm, read-out: % Inhibition): 100%
inhibition at 8 ppm ([4]; Streptococcus agalactiae, 8 ppm): 100%
inhibition at 16 ppm ([4]; Streptococcus agalactiae, 16 ppm, read-out: % Inhibition): 100%
inhibition at 32 ppm ([4]; Streptococcus agalactiae, 32 ppm): 100%
inhibition at 64 ppm ([4]; Streptococcus agalactiae, 64 ppm, read-out: % Inhibition): 100%
effectiveness compared with chlortetracycline (in words) [5, 12]: considerably more effective
inhibition at 0.125 ppm ([5]; Campylobacter coli, 0.125 ppm): 100%
inhibition at 0.25 ppm ([5]; Campylobacter coli, 0.25 ppm): 100%
inhibition at 0.5 ppm ([5]; Campylobacter coli, 0.5 ppm): 100%
inhibition at 1 ppm ([5]; Campylobacter coli, 1 ppm): 100%
inhibition at 2 ppm ([5]; Campylobacter coli, 2 ppm): 100%
inhibition at 4 ppm ([5]; Campylobacter coli, 4 ppm): 100%
inhibition at 8 ppm ([5]; Campylobacter coli, 8 ppm): 100%
inhibition at 16 ppm ([5]; Campylobacter coli, 16 ppm): 100%
inhibition at 32 ppm ([5]; Campylobacter coli, 32 ppm): 100%
inhibition at 64 ppm ([5]; Campylobacter coli, 64 ppm): 100%
inhibition at 0.125 ppm ([6]; 0.125 ppm): 100%
inhibition at 0.25 ppm ([6]; 0.25 ppm): 100%
inhibition at 0.5 ppm ([6]; 0.5 ppm): 100%
inhibition at 1 ppm ([6]; 1 ppm, read-out: % Inhibition): 100%
inhibition at 2 ppm ([6]; 2 ppm): 100%
inhibition at 4 ppm ([6]; 4 ppm, read-out: % Inhibition): 100%
inhibition at 8 ppm ([6]; 8 ppm): 100%
inhibition at 16 ppm ([6]; 16 ppm, read-out: % Inhibition): 100%
inhibition at 32 ppm ([6]; 32 ppm): 100%
inhibition at 64 ppm ([6]; 64 ppm, read-out: % Inhibition): 100%
effectiveness compared with chlortetracycline (in words) [6, 12]: considerably more effective
inhibition at 0.125 ppm ([7]; 0.125 ppm): 0%
inhibition at 0.25 ppm ([7]; 0.25 ppm): 0%
inhibition at 0.5 ppm ([7]; 0.5 ppm): 0%
inhibition at 1 ppm ([7]; 1 ppm, read-out: % Inhibition): 0%
inhibition at 2 ppm ([7]; 2 ppm): 0%
inhibition at 4 ppm ([7]; 4 ppm, read-out: % Inhibition): 0%
inhibition at 8 ppm ([7]; 8 ppm): 0%
inhibition at 16 ppm ([7]; 16 ppm, read-out: % Inhibition): 0%
inhibition at 32 ppm ([7]; 32 ppm): 0%
inhibition at 64 ppm ([7]; 64 ppm, read-out: % Inhibition): 0%
effectiveness compared with chlortetracycline (in words) [8, 12]: considerably more effective
inhibition at 0.125 ppm ([8]; Enterococcus faecalis, 0.125 ppm): 0%
inhibition at 0.25 ppm ([8]; Enterococcus faecalis, 0.25 ppm): 50%
inhibition at 0.5 ppm ([8]; Enterococcus faecalis, 0.5 ppm): 100%
inhibition at 1 ppm ([8]; Enterococcus faecalis, 1 ppm, read-out: % Inhibition): 100%
inhibition at 2 ppm ([8]; Enterococcus faecalis, 2 ppm): 100%
inhibition at 4 ppm ([8]; Enterococcus faecalis, 4 ppm, read-out: % Inhibition): 100%
inhibition at 8 ppm ([8]; Enterococcus faecalis, 8 ppm): 100%
inhibition at 16 ppm ([8]; Enterococcus faecalis, 16 ppm, read-out: % Inhibition): 100%
inhibition at 32 ppm ([8]; Enterococcus faecalis, 32 ppm): 100%
inhibition at 64 ppm ([8]; Enterococcus faecalis, 64 ppm, read-out: % Inhibition): 100%
inhibition at 0.125 ppm ([9]; 0.125 ppm): 0%
inhibition at 0.25 ppm ([9]; 0.25 ppm): 0%
inhibition at 0.5 ppm ([9]; 0.5 ppm): 0%
inhibition at 1 ppm ([9]; 1 ppm, read-out: % Inhibition): 0%
inhibition at 2 ppm ([9]; 2 ppm): 0%
inhibition at 4 ppm ([9]; 4 ppm, read-out: % Inhibition): 0%
inhibition at 8 ppm ([9]; 8 ppm): 0%
inhibition at 16 ppm ([9]; 16 ppm, read-out: % Inhibition): 0%
inhibition at 32 ppm ([9]; 32 ppm): 0%
inhibition at 64 ppm ([9]; 64 ppm, read-out: % Inhibition): 0%
effectiveness compared with chlortetracycline (in words) [10, 12]: considerably more effective
inhibition at 0.125 ppm ([10]; Bordetella bronchiseptica, 0.125 ppm): 0%
inhibition at 0.25 ppm ([10]; Bordetella bronchiseptica, 0.25 ppm): 0%
inhibition at 0.5 ppm ([10]; Bordetella bronchiseptica, 0.5 ppm): 0%
inhibition at 1 ppm ([10]; Bordetella bronchiseptica, 1 ppm, read-out: % Inhibition): 0%
inhibition at 2 ppm ([10]; Bordetella bronchiseptica, 2 ppm): 0%
inhibition at 4 ppm ([10]; Bordetella bronchiseptica, 4 ppm, read-out: % Inhibition): 0%
inhibition at 8 ppm ([10]; Bordetella bronchiseptica, 8 ppm): 0%
inhibition at 16 ppm ([10]; Bordetella bronchiseptica, 16 ppm, read-out: % Inhibition): 100%
inhibition at 32 ppm ([10]; Bordetella bronchiseptica, 32 ppm): 100%
inhibition at 64 ppm ([10]; Bordetella bronchiseptica, 64 ppm, read-out: % Inhibition): 100%
inhibition at 0.125 ppm ([11]; 0.125 ppm): 0%
inhibition at 0.25 ppm ([11]; 0.25 ppm): 0%
inhibition at 0.5 ppm ([11]; 0.5 ppm): 0%
inhibition at 1 ppm ([11]; 1 ppm, read-out: % Inhibition): 0%
inhibition at 2 ppm ([11]; 2 ppm): 0%
inhibition at 4 ppm ([11]; 4 ppm, read-out: % Inhibition): 0%
inhibition at 8 ppm ([11]; 8 ppm): 0%
inhibition at 16 ppm ([11]; 16 ppm, read-out: % Inhibition): 0%
inhibition at 32 ppm ([11]; 32 ppm): 0%
inhibition at 64 ppm ([11]; 64 ppm, read-out: % Inhibition): 0%
